Tests used:
Format in all cases: in vivo
Arabidopsis thaliana = assay: Induced resistance of Arabidopsis thaliana to high temperature stress; conditions: for heat injury index (%): 45° C. 12 h, 7 days recovery; for PIABS (photosynthetic performance index): after 45° C. for 12 h
Procedure: 2-amino-3-phenylbutyric acid was dissolved in distilled water and then gradiently diluted with distilled water into solutions of 100 nM, 1,000 nM, and 10,000 nM, and a blank control was set up, while 0.02% Tween 20 was added as surfactant. Four groups of replicates were set up for each concentration, and set up a blank control at room temperature. Arabidopsis thaliana seeds were planted in a pot with a diameter of 8.5 cm at about 50 seeds per pot, and grown in a greenhouse at a temperature of 22° C., a humidity of 60%-70%, and a light intensity of 100 μmol m^−2s^−1 (16 h light/8 h darkness). The treatment was initiated at the 21 d of seedling stage of Arabidopsis thaliana by spraying 2-amino-3-phenylbutyric acid solution on the leaf surface, and spraying twice within 24 hours. 24 hours after the second treatment, the plants were transferred to a light incubator at a temperature of 45° C. for high temperature stress treatment. After 12 h of treatment, they were treated in the dark at room temperature for 30 min, and then the chlorophyll fluorescence of the Arabidopsis thaliana leaves was measured with Plant Efficiency Handy PEA. Then, the plants were removed and transferred to a greenhouse at 25° C. for 7 days for recovery. The injured conditions of the plants were observed and the grade of hot injury was calculated, where the grading standard of heat injury is shown in Table 1, and the formula for calculating the heat injury index is as follows.
The concentrations of 2,6-diamino-3-methylhexanoic acid used in this trail are 0, 1, 10, 100 and 1,000 nM, and 0.02% Tween 20 is added as a surfactant. Four groups of replicates were set up. Other methods were the same as 2-amino-3-phenylbutyric acid, and the effect of 2,6-diamino-3-methylhexanoic acid to induce the resistance of Arabidopsis thaliana to high temperature stress was investigated.

tea seedlings (Baiye 1) = assay: Induced resistance of tea tree to low temperature stress; conditions: for PIABS (photosynthetic performance index): after −4° C. for 24 h; for cold injury index (%): −4° C. 24 h, 3 days recovery
Procedure: The tea tree tested was cutting seedling of Baiye 1. Tea seedlings with consistent growth were selected and transplanted into plastic pots with a diameter of 18 cm and placed in a greenhouse with a temperature of 25° C. and a humidity of 60%-70% for adaptive growth for about a week for the experiment. The concentrations used in this experiment were 0, 100, 1,000, and 10,000 nM, and 0.02% Tween 20 was added as surfactant, where the spray treatment method was the same as that of Arabidopsis thaliana in Example 1, the duration of low temperature stress was 24 hours, and the temperature was set to −4° C. After the stress was completed, the tea seedlings were removed and after 30 min of dark treatment at room temperature, the chlorophyll fluorescence of the top leaves of the tea seedlings was measured with Plant Efficiency Handy PEA. The tea seedlings were then placed in a greenhouse at 25° C. for 3 days for recovery. Then the condition of cold injury was observed and graded, where the grading standard of cold injury is shown Table 12, the formula for calculating the cold injury index is as follows.
The concentrations of 2,6-diamino-3-methylhexanoic acid used in the trail were 0, 1, 10, 100, and 1,000 nM, and 0.02% Tween 20 was added as surfactant. The effect of 2,6-diamino-3-methylhexanoic acid to induce the resistance of tea to low-temperature stress was investigated according to the method as described above.

wheat = assay: Induced resistance of wheat to drought stress (25% PEG-6000); conditions: for drought injury index (%) / dry weight (g) aboveground part / dry weight (g) underground part / fresh weight (g) aboveground part / fresh weight (g) underground part / length of root (cm): 6 days drought stress, 7 days recovery
Procedure: Wheat was hydroponic cultured in a 6-mesh sieve used as a container at 50 grains per sieve, and ½ Hoagland nutrient solution was changed every three days. When the wheat grew to the stage of two leaves and one bud, 2-amino-3-phenylbutyric acid solution was sprayed on the leaf surface, and the concentration of 2-amino-3-phenylbutyric acid was 0, 100 and 1,000 nM, and 0.02% Tween 20 was added as surfactant. After two days of continuous spraying, the hydroponic nutrient solution was replaced with ½ Hoagland nutrient solution containing 25% PEG-6000 on the 3rd day for stress treatment. After 6 days of drought stress, rehydration treatment was conducted. And after 7 days of recovery growth in normal nutrient solution, the drought injury index was observed and determined, and the root length and biomass were determined.
The performance characteristics of drought injury of leaves are similar to those of salt injury. The rate of drought injury and the drought injury index are introduced by using the evaluation indexes of salt injury. The formula for calculating the drought injury index is as follows, and the grading standard of drought injury is shown in Table 15.

cotton (Sikang 1) = assay: Induced resistance of cotton to salt stress (100 mM NaCl); conditions: three days
Procedure: The experimental material was “Sikang 1” cotton, which was hydroponic cultured in a 500 mL plastic cup and ½ Hoagland nutrient solution was changed every three days. When the cotton seedling grew until the second true leaf fully unfolded, the leaf surface was sprayed with 2-amino-3-phenylbutyric acid solution. The concentrations used in this experiment were 0, 1, 10, 100, and 1,000 nM, and 0.02% Tween 20 was added as surfactant. The spraying was repeated once every 24 hours for a total of 2 times. On the second day after the treatment, NaCl was added to the ½ Hoagland nutrient solution to a final concentration of 100 mM to perform salt stress treatment. Each treatment was performed in triplicate. After three days of salt stress, rehydration treatment was performed, the salt injury symptoms of cotton were observed, and calculate the salt injury index was calculated. The formula is as follows: […]

[1] = 10,000 nM, versus untreated heat-stressed group

CC(CCCN)C(N)C(=O)O (stereo not drawn) [2,6-diamino-3-methylhexanoic acid]
heat injury index (%) (Arabidopsis thaliana; 1 nM): 49%
PIABS (photosynthetic performance index) (Arabidopsis thaliana; 1 nM): 1.84 ± 0.02 e
heat injury index (%) (Arabidopsis thaliana; 10 nM): 38%
PIABS (photosynthetic performance index) (Arabidopsis thaliana; 10 nM): 3.58 ± 0.11 days
heat injury index (%) (Arabidopsis thaliana; 100 nM): 29%
PIABS (photosynthetic performance index) (Arabidopsis thaliana; 100 nM): 5.73 ± 0.17 c
increase of PIABS compared with the control group (Arabidopsis thaliana; 1,000 nM): 36 fold
heat injury index (%) (Arabidopsis thaliana; 1,000 nM): 9%
PIABS (photosynthetic performance index) (Arabidopsis thaliana; 1,000 nM): 9.49 ± 0.14 b
decrease of heat injury index (Arabidopsis thaliana; 1,000 nM, versus untreated heat-stressed group): 64%
PIABS (photosynthetic performance index) (tea seedlings (Baiye 1); 1 nM): 25.53 ± 0.09
cold injury index (%) (tea seedlings (Baiye 1); 1 nM): 46%
PIABS (photosynthetic performance index) (tea seedlings (Baiye 1); 10 nM): 32.44 ± 1.51 c
cold injury index (%) (tea seedlings (Baiye 1); 10 nM): 42%
PIABS (photosynthetic performance index) (tea seedlings (Baiye 1); 100 nM): 37.41 ± 0.14 b
cold injury index (%) (tea seedlings (Baiye 1); 100 nM): 33%
decrease of cold injury index (tea seedlings (Baiye 1); 1,000 nM): 45%
increase of PIABS (tea seedlings (Baiye 1); 1,000 nM): 121%
PIABS (photosynthetic performance index) (tea seedlings (Baiye 1); 1,000 nM): 40.14 ± 0.15 a
cold injury index (%) (tea seedlings (Baiye 1); 1,000 nM): 26%
drought injury index (%) (wheat; 100 nM): 40%
dry weight (g) aboveground part (wheat; 100 nM): 0.94 ± 0.01 b g
dry weight (g) underground part (wheat; 100 nM): 0.42 ± 0.01 b g
fresh weight (g) aboveground part (wheat; 100 nM): 7.70 ± 0.02 b g
fresh weight (g) underground part (wheat; 100 nM): 3.79 ± 0.01 b g
length of root (cm) (wheat; 100 nM): 14.35 ± 0.08 b cm
decrease of drought injury index (wheat; 1,000 nM): 59%
increase of fresh weight of aboveground part compared with the control group (wheat; 1,000 nM): 31.03%
increase of fresh weight of underground part compared with the control group (wheat; 1,000 nM): 34.42%
increase of root length compared with the control group (wheat; 1,000 nM): 9.77%
drought injury index (%) (wheat; 1,000 nM): 21%
dry weight (g) aboveground part (wheat; 1,000 nM): 1.05 ± 0.01 a g
dry weight (g) underground part (wheat; 1,000 nM): 0.49 ± 0.01 a g
fresh weight (g) aboveground part (wheat; 1,000 nM): 8.99 ± 0.01 a g
fresh weight (g) underground part (wheat; 1,000 nM): 4.59 ± 0.03 a g
length of root (cm) (wheat; 1,000 nM): 14.63 ± 0.12 a cm
mortality (%) (cotton (Sikang 1); 1 nM): 46%
salt injury index (%) (cotton (Sikang 1); 1 nM): 53%
mortality (%) (cotton (Sikang 1); 10 nM): 40%
salt injury index (%) (cotton (Sikang 1); 10 nM): 49%
mortality (%) (cotton (Sikang 1); 100 nM): 27%
salt injury index (%) (cotton (Sikang 1); 100 nM): 42%
mortality (%) (cotton (Sikang 1); 1,000 nM): 23%
salt injury index (%) (cotton (Sikang 1); 1,000 nM): 36%

CC(c1ccccc1)C(N)C(=O)O (stereo not drawn) [2-amino-3-phenylbutyric acid]
heat injury index (%) (Arabidopsis thaliana; 100 nM): 47%
PIABS (photosynthetic performance index) (Arabidopsis thaliana; 100 nM): 26.13 ± 7.37 bc
heat injury index (%) (Arabidopsis thaliana; 1,000 nM): 31%
PIABS (photosynthetic performance index) (Arabidopsis thaliana; 1,000 nM): 27.27 ± 3.93 bc
heat injury index (%) (Arabidopsis thaliana; 10,000 nM): 16%
PIABS (photosynthetic performance index) (Arabidopsis thaliana; 10,000 nM): 33.40 ± 3.91 b
decrease of heat injury index (Arabidopsis thaliana; [1]): 56%
increase of PIABS (Arabidopsis thaliana; [1]): 134%
PIABS (photosynthetic performance index) (tea seedlings (Baiye 1); 100 nM): 21.83 ± 1.73 bc
cold injury index (%) (tea seedlings (Baiye 1); 100 nM): 66.33%
PIABS (photosynthetic performance index) (tea seedlings (Baiye 1); 1,000 nM): 33.67 ± 3.27 b
cold injury index (%) (tea seedlings (Baiye 1); 1,000 nM): 45%
decrease of cold injury index (tea seedlings (Baiye 1); 10,000 nM): 35%
increase of PIABS (tea seedlings (Baiye 1); 10,000 nM): 147%
PIABS (photosynthetic performance index) (tea seedlings (Baiye 1); 10,000 nM): 42.36 ± 3.51 a
cold injury index (%) (tea seedlings (Baiye 1); 10,000 nM): 40%
drought injury index (%) (wheat; 100 nM): 46%
dry weight (g) aboveground part (wheat; 100 nM): 0.87 ± 0.01 b g
dry weight (g) underground part (wheat; 100 nM): 0.38 ± 0.01 b g
fresh weight (g) aboveground part (wheat; 100 nM): 7.51 ± 0.24 b g
fresh weight (g) underground part (wheat; 100 nM): 3.77 ± 0.23 b g
length of root (cm) (wheat; 100 nM): 14.23 ± 0.12 a cm
decrease of drought injury index (wheat; 1,000 nM): 46%
increase of fresh weight of aboveground part compared with the control group (wheat; 1,000 nM): 46.33%
increase of fresh weight of underground part compared with the control group (wheat; 1,000 nM): 55.14%
increase of root length compared with the control group (wheat; 1,000 nM): 11.87%
drought injury index (%) (wheat; 1,000 nM): 27%
dry weight (g) aboveground part (wheat; 1,000 nM): 0.94 ± 0.05 a g
dry weight (g) underground part (wheat; 1,000 nM): 0.43 ± 0.02 a g
fresh weight (g) aboveground part (wheat; 1,000 nM): 8.97 ± 0.32 a g
fresh weight (g) underground part (wheat; 1,000 nM): 4.53 ± 0.01 a g
length of root (cm) (wheat; 1,000 nM): 14.70 ± 0.37 a cm
mortality (%) (cotton (Sikang 1); 1 nM): 49%
salt injury index (%) (cotton (Sikang 1); 1 nM): 66.67%
mortality (%) (cotton (Sikang 1); 10 nM): 46%
salt injury index (%) (cotton (Sikang 1); 10 nM): 55%
mortality (%) (cotton (Sikang 1); 100 nM): 32%
salt injury index (%) (cotton (Sikang 1); 100 nM): 51%
mortality (%) (cotton (Sikang 1); 1,000 nM): 28%
salt injury index (%) (cotton (Sikang 1); 1,000 nM): 42%

Source: patent US20250127165A1, “USE OF 2-AMINO-3-PHENYLBUTYRIC ACID OR 2,6-DIAMINO-3-METHYLHEXANOIC ACID AS PLANT IMMUNE RESISTANCE INDUCER” (NANJING TIANNONG BIOTECHNOLOGY CO., LTD., priority 2021, published 2025)
